# Legend:
# [1] = test system: SOCS1; experiment: SOCS1 expression (qPCR, relative to GAPDH) in healthy control PBMCs treated in vitro; type: cell-based, human; conditions: chloroquine diphosphate salt for 12 and 24 h
# Experimental: FIGS. 9A and 9B. SOCS1 expression is not affected by chloroquine treatment, but is increased by dexamethasone treatment. (FIG. 9A) PBMCs, taken from healthy controls, were treated with (FIG. 9A) chloroquine diphosphate salt at the indicated molar concentrations for 12 and 24 h or (FIG. 9B) dexamethasone at the indicated molar concentrations for 3, 6, 12, or 24 h. Post treatment, SOCS1 expression, relative to GAPDH, was assessed via qPCR. Results shown as mean±s.e.m. The Kruskal-Wallis test followed by the Dunn's Multiple Comparison Test was chosen to assess statistical significance. (*P<0.05).
# PBMCs were purified from heparinized blood by Ficoll-Paque gradient centrifugation. Briefly, whole blood was diluted with PBS (1:1) and gently layered on the Ficoll (Lymphocyte Separation Medium; Cellgro, Manassas, Va.). […]
# Using the Promega RNA extraction protocol, total RNA was extracted from human PBMCs ex vivo or from mouse CD4^+CD25^− cells after being cultured under control (anti-CD3 and anti-CD28) or Th17 inducing conditions in the presence or absence of SOCS1-KIR peptide. cDNA synthesis and qPCR were performed as described in (Collins et al. 2011), with modifications. […] The amplification reactions took place in a PTC-200 Peltier Thermal Cycler with a CHROMO 4 Continuous Fluorescence Detector (BioRad). […] The fold change in expression was calculated using the ΔΔCT method.
# [2] = test system: SLE patients; experiment: Subgroup analysis of SLE patients with and without prednisone treatment (PBMC western blot, RT-PCR); type: in vivo, human; conditions: SLE patients receiving vs not receiving prednisone
# Description: FIGS. 20A-20F. […] Results shown are mean±SE; *represents significant Pearson correlation; ^ represents a t-test with significant mean difference. Correlation was considered significant at 0.05 level (2 tailed).
# The UF Institutional scientific research and review board (IRB) on human subjects approved the study protocol. Written informed consent were obtained from all patients and controls in the study. In all, 34 SLE patients and 11 healthy controls were enrolled in the present study (Table 5). All SLE patients fulfilled the 1982 American College of Rheumatology (ACR) revised criteria for SLE (Tan et al. 1982). The patient's age ranged from 22 to 73 years while the health controls age ranged from 27 to 55 years. Healthy controls (N=11) were recruited from the outpatient clinics at the participating institutions. All patients underwent baseline investigations as per clinical requirements. Disease activity was assessed by the SLE disease activity index (SLEDAI) (Bombardier et al. 1992).
# PBMCs were purified from heparinized blood by Ficoll-Hypaque gradient centrifugation. Briefly, whole blood was diluted with PBS (1:1) and gently layered on Ficoll (Lymphocyte Separation Medium; Cellgro, Manassas, Va.). Cells were centrifuged continuously at 400×g for 20 minutes. PBMCs were collected from the interface layer and washed 3 times with PBS. After isolation, PBMCs were lysed with RNA lysis buffer (Promega) and stored at −80° C. until RNA extraction and qPCR protocols were performed.
# RT-PCR was performed to determine the transcript levels of SOCS1, SOCS3 and STAT1 genes in PBMCs, relative to GAPDH. In brief, cDNA synthesis was performed using the iQ cDNA synthesis kit (Bio-Rad; Hercules, Calif.). The qPCR was subsequently performed using the iQ SYBR Green Super mix (Bio-Rad) and gene-specific primers for SOCS1, SOCS3, IFN-G and IL-27. The real time RT-PCR reaction was performed on CFX Connect™-Real time system. The PCR for the target gene and GAPDH was duplicated twice for each sample and the results were corrected for GAPDH expression as an internal control. Further the data was analyzed using CFX Manager™ software version 3.0 (Bio-Rad technologies, Inc.).
# Frozen PMBC cell pellets were thawed and lysed in RIPA lysis buffer (Santa Cruz Technologies, Inc.) followed by protein estimation through BSA 2.0 mg/ml standard curve preparation with Pierce protein assay reagents (Thermo Scientific Product #23209). Equal quantities of proteins were loaded and separated in 4%-12% SDS PAGE gel (Bio-rad) and separated proteins were transferred to nitrocellulose membrane (Bio-Rad Laboratories, Hercules, Calif.). The membranes were then blocked and incubated with polyclonal anti-rabbit antibodies specific to the KIR regions of SOCS1 and SOCS3 (a kind gift from Dr. Howard Johnson Labs, UF), anti-pSTAT1; anti-pERK1/2; anti-pAKT and for total STAT1; ERK1/2 and AKT respectively (Cell signaling). Further probed with appropriate secondary antibodies conjugated to HRP, and visualized with the ECL detection system according to the manufacturer's instruction (Pierce; Thermo Scientifics) The GAPDH was used as a loading control. The results were calculated as densitometry arbitrary units using the J image online software.
# [3] = target: JAK2 (Homo sapiens, UniProt O60674); experiment: Binding to the activation loop of JAK2; conditions: dimer compared with monomer
# JAK2, sequence (O60674 whole entry, species assumed): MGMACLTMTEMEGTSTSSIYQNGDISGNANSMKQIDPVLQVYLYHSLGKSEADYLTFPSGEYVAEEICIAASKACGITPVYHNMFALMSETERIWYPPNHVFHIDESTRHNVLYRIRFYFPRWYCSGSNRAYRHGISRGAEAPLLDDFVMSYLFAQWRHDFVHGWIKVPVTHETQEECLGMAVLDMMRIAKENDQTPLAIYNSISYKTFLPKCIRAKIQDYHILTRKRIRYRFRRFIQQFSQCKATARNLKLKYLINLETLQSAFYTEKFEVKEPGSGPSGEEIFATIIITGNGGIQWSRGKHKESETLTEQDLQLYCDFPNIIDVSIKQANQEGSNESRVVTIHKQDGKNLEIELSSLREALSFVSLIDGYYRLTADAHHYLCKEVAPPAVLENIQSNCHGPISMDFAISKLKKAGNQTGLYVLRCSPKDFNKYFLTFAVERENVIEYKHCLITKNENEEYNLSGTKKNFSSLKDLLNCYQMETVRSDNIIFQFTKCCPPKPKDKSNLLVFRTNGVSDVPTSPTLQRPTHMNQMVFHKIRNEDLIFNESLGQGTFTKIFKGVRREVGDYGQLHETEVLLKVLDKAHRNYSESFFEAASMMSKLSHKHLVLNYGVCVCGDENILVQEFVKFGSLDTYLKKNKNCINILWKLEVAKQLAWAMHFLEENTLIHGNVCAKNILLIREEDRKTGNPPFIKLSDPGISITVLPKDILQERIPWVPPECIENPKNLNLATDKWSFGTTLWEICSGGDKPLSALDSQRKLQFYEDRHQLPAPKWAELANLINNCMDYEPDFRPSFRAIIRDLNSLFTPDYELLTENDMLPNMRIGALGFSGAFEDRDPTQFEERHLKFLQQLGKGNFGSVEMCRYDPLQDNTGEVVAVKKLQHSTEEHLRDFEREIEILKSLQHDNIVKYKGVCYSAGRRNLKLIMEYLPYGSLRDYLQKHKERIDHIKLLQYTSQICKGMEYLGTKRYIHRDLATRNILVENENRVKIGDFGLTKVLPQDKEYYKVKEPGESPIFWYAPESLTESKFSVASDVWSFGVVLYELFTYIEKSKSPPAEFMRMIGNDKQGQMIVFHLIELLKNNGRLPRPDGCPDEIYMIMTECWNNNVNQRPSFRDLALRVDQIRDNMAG
# [4] = test system: CD4+CD25− T cells from C56BL/6 mice; experiment: Th17 induction (iTh17) and activation of CD4+CD25− T cells, SOCS1 monomer vs dimer; type: cell-based, mouse; conditions: Th17 inducing conditions, peptide 20 μM, 5 days
# Experimental: FIG. 11. […] CD4+CD25− T cells from B6 mice were in the presence of Th17 inducing conditions in the presence of SOCS1 monomer or dimer for 5 days. Cells were re-stimulated with PMA, ionomycin, and brefeldin, followed by staining with anti-CD4, anti-IL17, and anti-CD25 antibodies.
# Induction of Th17 cells, iTh17, and the effect of treatment on induction is illustrated in FIG. 11. CD4^+CD25^− T cells from C56BL/6 mice were incubated for 5 days at 37° C. under 1) control conditions (anti-CD3 (10 μg/ml), anti-CD28 (1.5 μg/ml)); 2) Th17 inducing conditions (anti-CD3, anti-CD28, IL-6 (20 ng/ml), TGF-β (5 ng/ml)); 3) Th17 inducing conditions with SOCS1 monomer (20 μM), or Th17 inducing conditions with SOCS1 dimer (20 μM). Following a 5-day incubation, cells were re-stimulated with phorbol myristic acetate (PMA) (50 ng/ml), ionomycin (1 μM), and brefeldin A (10 μg/ml). To assess Th17 differentiation, cells were stained with anti-CD4 and anti-IL-17A antibodies. To assess activation, cells were stained with anti-CD4 and anti-CD25 antibodies.
# [5] = Anti-cellular activity; type: cell-based; conditions: dimer compared with monomer
compound,measurement,setting,value
CCN(CC)CCCC(C)Nc1ccnc2cc(Cl)ccc12 (stereo not shown) [chloroquine],SOCS1 expression,[1],not affected
C[C@]12C=CC(=O)C=C1CC[C@@H]1[C@@H]2C(=O)C[C@@]2(C)[C@H]1CC[C@]2(O)C(=O)CO [prednisone],SOCS 1/3 message expression,[2],no effect
same,SOCS3 protein levels,[2],no effect
same,STAT1 phosphorylation,[2],no effect
same,SOCS1 protein levels,"[2]; significant in inactive SLEDIA (n=9, p<0.001)",consistently had higher SOCS1 protein levels
same,pErk1/2 activation,[2]; significant in inactive SLEDIA patients,higher levels of pErk1/2 activation
DTHFRTFRSHSDYRRIGGGGGGDTHFRTFRSHSDYRRI (SOCS1-KIR dimer peptide) [SOCS1-KIR mimetic as a dimer with a six glycine (G) linker],Avidity for the activation loop of JAK2,[3],significantly increased the avidity
same,Inhibition of CD4+ T cell activation (CD25 staining),[4],More Effective than SOCS1 Monomer
same,Inhibition of iTh17 induction (IL-17A staining),[4],greater inhibitory effects on iTh17 than did the monomer
same,Anti-cellular activity,[5],increased anti-cellular activity

# — patent publication US11603387B2, “SOCS mimetics for the treatment of diseases” (UNIVERSITY OF FLORIDA RESEARCH FOUNDATION, INC., priority 2014, dated 2023)
